Target: T1, Recombinant human LOXL2 (lysyl oxidase like 2) (Homo sapiens, UniProt Q9Y4K0)
T1 construct: purchased R&D systems
T1 sequence (Q9Y4K0 26-774): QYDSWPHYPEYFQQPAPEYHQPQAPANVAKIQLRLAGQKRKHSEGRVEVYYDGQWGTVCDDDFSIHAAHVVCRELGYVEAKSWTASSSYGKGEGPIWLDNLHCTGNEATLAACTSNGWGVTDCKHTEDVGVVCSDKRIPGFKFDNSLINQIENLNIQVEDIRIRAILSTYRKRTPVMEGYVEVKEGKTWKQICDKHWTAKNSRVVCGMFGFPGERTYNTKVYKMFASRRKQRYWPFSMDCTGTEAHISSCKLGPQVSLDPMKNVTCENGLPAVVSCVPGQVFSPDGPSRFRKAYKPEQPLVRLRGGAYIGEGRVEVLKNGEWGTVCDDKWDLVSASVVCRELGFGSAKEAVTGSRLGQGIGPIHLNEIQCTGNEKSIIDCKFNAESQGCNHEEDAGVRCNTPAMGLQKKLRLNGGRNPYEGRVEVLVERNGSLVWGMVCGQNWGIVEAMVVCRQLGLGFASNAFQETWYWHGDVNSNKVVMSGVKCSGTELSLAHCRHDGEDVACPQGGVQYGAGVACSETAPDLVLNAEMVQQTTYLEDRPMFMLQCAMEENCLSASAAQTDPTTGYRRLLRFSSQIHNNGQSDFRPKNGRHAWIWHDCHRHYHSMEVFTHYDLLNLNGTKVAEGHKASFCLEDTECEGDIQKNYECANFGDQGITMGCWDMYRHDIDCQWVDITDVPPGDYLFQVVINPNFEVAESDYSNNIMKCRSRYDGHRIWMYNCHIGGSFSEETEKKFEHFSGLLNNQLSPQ
Test: LOXL2 inhibition assay, fluorometric (cadaverine / HRP / Amplex Red)
Type: biochemical
Conditions: recombinant human LOXL2 130 nM; 30 min preincubation at 37° C.; 2.5 mM cadaverine; read-out: Activity Range LOXL2
Procedure: The ability of compounds to inhibit one or more of the lysyl oxidases LOXL2 and/or LOXL3 was determined using a fluorometric assay. This assay measures the activity of lysyl oxidases by coupling the reaction with horseradish peroxidase-catalyzed […]. The activity assay protocol uses cadaverine as substrate that releases hydrogen peroxide upon transformation by the specific LOX family enzyme present in the sample. Hydrogen peroxide is in turn detected using a red fluorescence substrate for HRP-coupled reactions (Amplex Red Enzyme Assays, Thermo Scientific Fisher). This leads to increase in fluorescence that can be easily detected at Ex/Em=540/590 nm in a fluorescence microplate reader.
Recombinant human LOXL2 (lysyl oxidase like 2) and recombinant human LOXL3 (lysyl oxidase like 3) were purchased from R&D systems and assays were performed in 1.2 M urea, 50 mM sodium borate buffer pH 8.0, and 10 mM CaCl.
5 μl of freshly prepared reaction buffer were delivered to reaction wells. Compounds were resuspended in 100% DMSO at 10 mM and delivered into buffer using acoustic technology (Echo550; nanoliter range). A 3× solution of LOXL2 or LOXL3 in reaction buffer was prepared (“enzyme solution”) and 5 μL of enzyme solution was added into the reaction wells. Buffer only was added to column 1 for no protein control. Reactions were incubated for 30 minutes at 37° C. A 3× mixture of cadaverine, Amplex Red, and HRP (“Substrate/Detection Mix) was prepared and subsequently 5 μL of the mixture added to each reaction well. Progress of reactions was monitored for 60 minutes at 37° C. using Clariostar plate reader (ex 530-12, ems 600-40). For all activity assays, pan-LOX inhibitor CCT365623 (Tang et al, 2017) and LOXL2/LOXL3 inhibitor PAT-1251 (PharmaKea) were included as standards.
For the data analysis, the slope of the linear portion of the progress curve was calculated using Clariostar software. Typical analysis interval was between 8-30 min, but varied between experiments. The background-subtracted signals (No protein wells are considered as background) were converted to % activity relative to DMSO controls. Data was analyzed using GraphPad Prism 4 with “sigmoidal dose-response (variable slope)”; 4 parameters with Hill Slope. Constraints: Bottom=Constant equal to 0. Top=Must be less than 120.

| Compound | IC50 [nM] |
| --- | --- |
| NCc1ccnc(S(=O)(=O)C[C@@H]2C[C@H](C3CCCCC3)CN(S(=O)(=O)N3CCS(=O)(=O)CC3)C2)c1 (relative stereo) [Example 234, cis-4-((3-(((4-(Aminomethyl)pyridin-2-yl)sulfonyl)methyl)-5-cyclohexylpiperidin-1-yl)sulfonyl)thiomorpholine 1,1-dioxide 2,2,2-trifluoroacetate] | ≤ 500 |
| NCc1ccnc(S(=O)(=O)C[C@H]2C[C@H](C3CCCCC3)CN(S(=O)(=O)N3CCS(=O)(=O)CC3)C2)c1 (relative stereo) [Example 234T, trans-4-((3-(((4-(Aminomethyl)pyridin-2-yl)sulfonyl)methyl)-5-cyclohexylpiperidin-1-yl)sulfonyl)thiomorpholine 1,1-dioxide 2,2,2-trifluoroacetate] | ≤ 500 |
| NCc1ccnc(OC[C@H]2C[C@H](C3CCCCC3)CN(S(=O)(=O)N3CCOCC3)C2)c1 [Example 231T, trans-(2-(((3S,5R)-5-cyclohexyl-1-(morpholinosulfonyl)piperidin-3-yl)methoxy)pyridin-4-yl)methanamine] | ≤ 500 |

— patent US12016864B2, “LOX enzyme inhibiting methods and compositions” (ANOVIA BIOSCIENCES, INC., priority 2021, dated 2024)
